Laboratory results taken from patent US20240124469A1, “PIM KINASE INHIBITOR” (Hangzhou Biosun Pharmaceutical Co., Ltd., priority 2021, published 2024).

What was measured:
Assay type in all cases: biochemical
PIM2 = PIM2 (Homo sapiens (Human), UniProt Q9P1W9); test: PIM2 kinase activity test (Mobility shift assay)
Procedure: (§1) The efficacy of the compounds on the activity of PIM1/2/3 was tested by utilizing the Mobility shift assay method, with the specific procedures shown as follows: the test compounds were each dissolved in DMSO to be prepared into a 10 mM stock solution; for each of the test compounds, the stock solution was subjected to a 3-fold dilution from an initial concentration of 10 μM to obtain 10 concentrations.
(§2) PIM1, PIM2, and PIM3 (all three kinases are from Carna) were each prepared with 1× Kinase buffer into a kinase solution at a concentration that was 2.5 times the final concentration. 10 μL of kinase solution at a concentration that was 2.5 times the final concentration was added to each of the compound wells and the positive control well, and 10 μL of 1× Kinase buffer was added to the negative control well. The plate was centrifuged at 1000 rpm for 30 s, mixed well by shaking, and then incubated at room temperature for 10 min. A mixed solution of ATP and Kinase substrate 20 (from GL) at a concentration that was 25/15 times the final concentration was prepared with 1× Kinase buffer. The reaction was started by adding 15 μL of the mixed solution of ATP and Kinase substrate 20 at a concentration that was 25/15 times the final concentration. The 384-well plate was centrifuged at 1000 rpm for 30 s, mixed well by shaking, and then incubated at room temperature for 60 min. 30 μL of stop assay buffer was added to stop the kinase reaction. The plate was centrifuged at 1000 rpm for 30 s and mixed well by shaking. The conversion rates were read using Caliper EZ Reader.
(§3) The IC50 values of the test compounds for kinase activity were obtained by adopting a fitted dose-response curve of analytic software GraphPad Prism 5.

PIM1 = PIM1 (Homo sapiens (Human), UniProt P11309); test: PIM1 kinase activity test (Mobility shift assay)
Procedure: as §1, §2, §3

PIM3 = PIM3 (Homo sapiens (Human), UniProt Q86V86); test: PIM3 kinase activity test (Mobility shift assay)
Procedure: as §1, §2, §3

Chain of PIM2 (Q9P1W9 whole entry): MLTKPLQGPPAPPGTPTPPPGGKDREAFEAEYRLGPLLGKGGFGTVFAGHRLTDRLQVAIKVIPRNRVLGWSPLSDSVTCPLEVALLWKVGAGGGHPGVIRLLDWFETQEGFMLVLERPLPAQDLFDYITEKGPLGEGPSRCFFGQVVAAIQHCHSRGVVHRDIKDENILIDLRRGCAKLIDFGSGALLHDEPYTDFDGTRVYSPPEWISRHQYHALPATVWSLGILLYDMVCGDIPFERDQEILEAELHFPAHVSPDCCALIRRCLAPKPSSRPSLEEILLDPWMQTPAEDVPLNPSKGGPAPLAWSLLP
Chain of PIM1 (P11309 whole entry): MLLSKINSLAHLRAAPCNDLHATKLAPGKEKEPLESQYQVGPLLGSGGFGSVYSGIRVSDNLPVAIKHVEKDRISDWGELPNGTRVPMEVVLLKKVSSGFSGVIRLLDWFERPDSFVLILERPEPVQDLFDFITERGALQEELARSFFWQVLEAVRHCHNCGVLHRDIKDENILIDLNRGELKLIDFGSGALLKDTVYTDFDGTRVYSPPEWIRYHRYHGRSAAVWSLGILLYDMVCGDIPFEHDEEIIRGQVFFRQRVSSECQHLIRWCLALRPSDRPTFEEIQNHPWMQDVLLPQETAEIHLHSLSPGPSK

IC50 (PIM2) [nM] | IC50 (PIM1) [nM] | IC50 (PIM3) [nM] | Compound
> 10000 | 100 to 1000 | 1000 to 10000 | O[C@H]1CCC[C@@H](Nc2ccc3ncc(-c4cccc(C(F)(F)F)c4)n3n2)CC1 (relative stereo) [Compound 23, cis-4-[[3-[3-(trifluoromethyl)phenyl]imidazo[1,2-b]pyridazin-6-yl]amino]cycloheptanol]
1000 to 10000 | 10 to 100 | 100 to 1000 | FC(F)(F)c1cccc(-c2cnc3ccc(NCC4CC5(CCNCC5)C4)nn23)c1 [Compound 15, N-(7-azaspiro [3.5]nonan-2-ylmethyl)-3-[3-(trifluoromethyl)phenyl]imidazo[1,2-b]pyridazin-6-amine]
100 to 1000 | 10 to 100 | 100 to 1000 | FC(F)(F)c1cccc(-c2cnc3ccc(NCC4CC5(CCNC5)C4)nn23)c1 (stereo not drawn) [Compound 18, N-(6-azaspiro[3.4]octan-2-ylmethyl)-3-(3-(trifluoromethyl)phenyl)imidazo[1,2-b]pyridazin-6-amine]
100 to 1000 | 2 to 10 | 10 to 100 | FC(F)(F)c1cccc(-c2cnc3ccc(NC4CCCNCC4)nn23)c1 (stereo not drawn) [Compound 19, N-(azepan-4-yl)-3-[3-(trifluoromethyl)phenyl]imidazo[1,2-b]pyridazin-6-amine]
1000 to 10000 | 100 to 1000 | 1000 to 10000 | O[C@H]1CCCC[C@@H](Nc2ccc3ncc(-c4cccc(C(F)(F)F)c4)n3n2)C1 [Compound 21, (1S,3R)-3-[[3-[3-(trifluoromethyl)phenyl]imidazo[1,2-b]pyridazin-6-yl]amino]cycloheptanol]
1000 to 10000 | 100 to 1000 | 100 to 1000 | FC(F)(F)c1cccc(-c2cnc3ccc(NC4CC5(CCNC5)C4)nn23)c1 (stereo not drawn) [Compound 24, N-(6-azaspiro [3.4]octan-2-yl)-3-(3-(trifluoromethyl)phenyl)imidazo[1,2-b]pyridazin-6-amine]
> 10000 | 100 to 1000 | 1000 to 10000 | OC[C@H]1CC[C@H](Nc2ccc3ncc(-c4cccc(C(F)(F)F)c4)n3n2)CO1 [Compound 25, [(2R,5S)-5-[[3-[3-(trifluoromethyl)phenyl]imidazo[1,2-b]pyridazin-6-yl]amino]tetrahydropyran-2-yl]methanol]
1000 to 10000 | 10 to 100 | 100 to 1000 | CN1CCC2(CC1)CC(Nc1ccc3ncc(-c4cccc(C(F)(F)F)c4)n3n1)C2 [Compound 26, N-(7-methyl-7-azaspiro[3.5]nonan-2-yl)-3-(3-(trifluoromethyl)phenyl)imidazo[1,2-b]pyridazin-6-amine]
100 to 1000 | 10 to 100 | 100 to 1000 | CN1CCCC(Nc2ccc3ncc(-c4cccc(C(F)(F)F)c4)n3n2)CC1 (stereo not drawn) [Compound 27, N-(1-methylazacycloheptan-4-yl)-3-[3-(trifluoromethyl)phenyl]imidazo[1,2-b]pyridazin-6-amine]
> 10000 | 10 to 100 | 1000 to 10000 | FC(F)(F)c1cccc(-c2cnc3ccc(NC4CC5(CCN(C6CC6)CC5)C4)nn23)c1 [Compound 30, N-(7-cyclopropyl-7-azaspiro [3.5]nonan-2-yl)-3-(3-(trifluoromethyl)phenyl)imidazo[1,2-b]pyridazin-6-amine]
> 10000 | 100 to 1000 | > 10000 | O[C@@H]1CCCC[C@@H](Nc2ccc3ncc(-c4cccc(C(F)(F)F)c4)n3n2)C1 [Compound 44, (1R,3R)-3-((3-(3-(trifluoromethyl)phenyl)imidazo[1,2-b]pyridazin-6-yl)amino)cycloheptanol]
1000 to 10000 | 10 to 100 | 1000 to 10000 | O[C@@H]1CCC[C@@H](Nc2ccc3ncc(-c4cccc(C(F)(F)F)c4)n3n2)CC1 [Compound 45, (1R,4R)-4-((3-(3-(trifluoromethyl)phenyl)imidazo[1,2-b]pyridazin-6-yl)amino)cycloheptanol]

Continued, compound first:

Compound | IC50 (PIM2) [nM] | IC50 (PIM1) [nM] | IC50 (PIM3) [nM]
CC(C)(O)[C@H]1CC[C@H](Nc2ccc3ncc(-c4cccs4)n3n2)CC1 [Compound 14, 2-[(1r,4r)-4-[[3-(2-thienyl)imidazo[1,2-b]pyridazin-6-yl]amino]cyclohexyl]propan-2-ol] | 100 to 1000 | 10 to 100 | 100 to 1000
CC(C)(O)[C@H]1CC[C@H](Nc2ccc3ncc(-c4nccs4)n3n2)CC1 [Compound 17, 2-[(1r,4r)-4-[(3-thiazol-2-ylimidazo[1,2-b]pyridazin-6-yl)amino]cyclohexyl]propan-2-ol] | 100 to 1000 | 100 to 1000 | 100 to 1000
OC[C@@H]1CC[C@@H](Nc2ccc3ncc(-c4cccc(C(F)(F)F)c4)n3n2)CO1 [Compound 22, [(2S,5R)-5-[[3-[3-(trifluoromethyl)phenyl]imidazo[1,2-b]pyridazin-6-yl]amino]tetrahydropyran-2-yl]methanol] | 1000 to 10000 | 10 to 100 | 1000 to 10000
CC(C)(O)[C@H]1CC[C@H](Nc2ccc3nc(C(=O)O)c(-c4cccc(C(F)(F)F)c4)n3n2)CC1 [Compound 42, 6-(((1r,4r)-4-(2-hydroxypropan-2-yl)cyclohexyl)amino)-3-(3-(trifluoromethyl)phenyl)imidazo[1,2-b]pyridazine-2-carboxylic acid] | > 10000 | 100 to 1000 | 1000 to 10000
CC(C)(O)[C@H]1CC[C@H](Nc2ccc3nc(C#N)c(-c4cccc(C(F)(F)F)c4)n3n2)CC1 [Compound 43, 6-(((1r,4r)-4-(2-hydroxypropan-2-yl)cyclohexyl)amino)-3-(3-(trifluoromethyl)phenyl)imidazo[1,2-b] pyridazine-2-carbonitrile] | > 10000 | 100 to 1000 | > 10000
OC[C@H]1CC[C@H](Nc2ccc3ncc(-c4ccc(C(F)(F)F)s4)n3n2)CO1 [Compound 47, [(2R,5S)-5-[[3-[5-(trifluoromethyl)-2-thienyl]imidazo[1,2-b]pyridazin-6-yl]amino]tetrahydropyran-2-yl]methanol] | > 10000 | 10 to 100 | 1000 to 10000
CC(C)(O)[C@H]1CC[C@H](Nc2ccc3ncc(-c4cccc(-c5ccco5)c4)n3n2)CC1 [Compound 48, 2-((1r,4r)-4-((3-(3-(furan-2-yl)phenyl)imidazo[1,2-b]pyridazin-6-yl)amino)cyclohexyl)propan-2-ol] | > 10000 | 10 to 100 | 100 to 1000
CN1CCC(CNc2ccc3ncc(-c4cccc(N(C)C)c4)n3n2)CC1 [Compound 50, 3-(3-(dimethylamino)phenyl)-N-((1-methylpiperidin-4-yl)methyl)imidazo[1,2-b]pyridazin-6-amine] | > 10000 | 100 to 1000 | 1000 to 10000
CC(C)(O)[C@H]1CC[C@H](Nc2ccc3ncc(-c4cccc(S(C)(=O)=O)c4)n3n2)CC1 [Compound 51, 2-[(1r,4r)-4-[[3-(3-methylsulfonylphenyl)imidazo[1,2-b]pyridazin-6-yl]amino]cyclohexyl]propan-2-ol] | 1000 to 10000 | 100 to 1000 | > 10000
